Reference: patent publication US20110038796A1, “Method of Nuclear Medical Photography Using Dual-Isotopes” (ATOMIC ENERGY COUNCIL-INSTITUTE OF NUCLEAR ENERGY RESEARCH, priority 2009, published 2011)
Structures can show the parent of a compound that is named as a salt.

Experiments:
dopamine transporter [1] = molecular target: dopamine transporter (Homo sapiens, UniProt Q01959); conditions: cited from earlier work
dopamine transporter [2] = test: SPECT with [^99mTc]TRODAT-1 (single-isotope or dual-isotopes), specific uptake ratio in striatum; type: in vivo, Macaca Cyclopis
Procedure: (§1) Please refer to FIG. 1, which is a flow view showing a preferred embodiment according to the present disclosure. As shown in the figure, the present disclosure is a method of nuclear medical photography using dual-isotopes, where effect of using dual isotopes on diagnosing anomalies of dopamine and serotonin in primate's brain is evaluated. The present disclosure comprises the following steps: (a) Obtaining control group 11: A control group is obtained, comprising at least one first individual applied with an imaging agent of single-isotope of [^99mTc]TRODAT-1 for dopamine transporter; at least one second individual applied with an imaging agent of single-isotope of [^123I]ADAM for serotonin transporter; and at least one third individual applied with imaging agents of dual-isotopes of [^99mTc]TRODAT-1 and [^123I]ADAM. Therein, the individuals are non-human primates, like Macaca Cyclopis.
(§2) (b) Taking photos for control group 12: Photos of the first to the third individuals in the control group are taken through single photon emission computed tomography (SPECT). Therein, on taking the photo of the first individual applied with the single-isotope of [^99mTc]TRODAT-1, 90 mg/ml of KClO4 is applied to the first individual at first; and, then, after 20 minutes, 740 MBq (20 mCi) of [^99mTc]TRODAT-1 is injected from intravenous. After [^99mTc]TRODAT-1 is injected, a SPECT device equipped with dual-headed gamma cameras (Hawkeye, Millennium VG, General Elecral Medical System, Milwaukee, Wis. USA) coordinated with fan-beam collimators is used to take photos, where 15 dynamic sequence of brain images are taken during 30 minutes (2 min/frame). Therein, an energy window is set between 126 Kev and 154 Kev; data of 128×128 pixel-matrice are fetched; each photo are enlarged for 1.6 times; a photo is taken for each 3° from 360°; and, each of the two detectors is responsible for taking photos for 180°. After data are collected and processed through Metz filter with attenuation calibration, three three-dimensional (3D) photos of coronal, sagittal and transaxial sections are formed. On taking the photo of the second individual applied with the single-isotope of [^123I]ADAM, 185 MBq (5 mCi) of [^123I]ADAM is injected from intravenous; and, an energy window is set between 143 Kev and 175 Kev. On taking the photo of the third individual applied with the dual-isotopes, 90 mg/ml of KClO4 is applied to the […] at first; and, after 20 minutes, 740 MBq (20 mCi) of [^99mTc]TRODAT-1 and 185 MBq (5 mCi) of [^123I]ADAM are injected from intravenous almost simultaneously. Therein, an energy window for [^99mTc]TRODAT-1 is set between 129 Kev and 151 Kev and another energy window for [^123I]ADAM is set between 159 Kev and 175 Kev.
(§3) (c) Analyzing photos of control group 13: Magnetic resonance imaging (MRI) photos of the first to the third individuals are taken to provide reference information for the following analysis:
(§4) (c3) Analysis on dual-isotopes: The photo of the third individual applied with the dual-isotopes of [^123I]ADAM and [^99mTc]TRODAT-1 obtained in step (b) are processed through visual interpretation to figure out an SUR of [^99mTc]TRODAT-1 in striatum and an SUR of [^123I]ADAM in midbrain, thalamus, striatum and frontal cortex.

serotonin transporter = test: SPECT with [^123I]ADAM (single-isotope or dual-isotopes), specific uptake ratio in brain regions; type: in vivo, Macaca Cyclopis
Procedure: as §1, §2, §3
(c1) Analysis on [^123I]ADAM: The photo of the […] individual applied with the single-isotope of [^123I]ADAM obtained in step (b) are processed through visual interpretation to pick out regions of interest (ROI) abundant in serotonin transporter, like midbrain, thalamus, striatum and frontal cortex; and a region lack of serotonin transporter, like cerebellum, is set as background. Mean counts per pixel (MCPP) of the ROIs are deducted with MCPPs of the background and then are divided by the MCPPs of the background to figure out a specific uptake ratios (SUR) of the single-isotope of [^123I]ADAM.
as §4

[3] = 180 to 210 minutes after injection

dopamine transporter (Homo sapiens, UniProt Q01959), sequence (Q01959 whole entry): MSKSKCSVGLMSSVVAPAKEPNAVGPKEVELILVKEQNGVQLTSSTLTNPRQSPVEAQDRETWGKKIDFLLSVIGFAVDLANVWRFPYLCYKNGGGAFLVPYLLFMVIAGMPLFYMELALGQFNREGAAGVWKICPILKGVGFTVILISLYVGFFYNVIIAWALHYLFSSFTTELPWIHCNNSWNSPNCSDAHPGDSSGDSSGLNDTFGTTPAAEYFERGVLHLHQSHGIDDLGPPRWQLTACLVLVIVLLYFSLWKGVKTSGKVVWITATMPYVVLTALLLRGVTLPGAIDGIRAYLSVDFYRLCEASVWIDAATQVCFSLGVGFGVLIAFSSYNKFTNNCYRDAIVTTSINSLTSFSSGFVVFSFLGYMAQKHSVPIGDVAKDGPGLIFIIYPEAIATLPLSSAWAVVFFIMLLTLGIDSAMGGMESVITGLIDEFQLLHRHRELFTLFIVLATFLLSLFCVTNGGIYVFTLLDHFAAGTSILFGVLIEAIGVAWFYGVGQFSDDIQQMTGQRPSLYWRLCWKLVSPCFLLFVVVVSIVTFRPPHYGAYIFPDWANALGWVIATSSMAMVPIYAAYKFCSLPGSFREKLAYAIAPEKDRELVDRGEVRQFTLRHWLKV

CN1[C@H]2CC[C@@H]1[C@@H](CN(CC[S-])CC[N-]CC[S-])[C@@H](c1ccc(Cl)cc1)C2.[O]=[99Tc+4] [[^99mTc]TRODAT-1]
time to reach the highest binding level after injection (dopamine transporter [1]): within two hours | [^99mTc]TRODAT-1 SUR of striatum, single-isotope versus dual-isotopes (dopamine transporter [2]; [3]): no big difference

CN(C)Cc1ccccc1Sc1ccc([123I])cc1N [[^123I]ADAM]
[^123I]ADAM photos, single-isotope versus dual-isotopes (serotonin transporter; [3]): no big difference | binding of [^123I]ADAM in brain regions (SPECT photos) (serotonin transporter; 180 to 210 minutes after injection, midbrain, thalamus and striatum, single-isotope or dual-isotopes): bound to regions abundant in serotonin transporter | [^123I]ADAM SURs, single-isotope versus dual-isotopes (serotonin transporter; striatum, thalamus, midbrain and frontal cortex): no big difference

CNCCC(Oc1ccc(C(F)(F)F)cc1)c1ccccc1 (stereo not drawn) [fluoxetine]
[^99mTc]TRODAT-1 SURs after pretreatment with fluoxetine (dopamine transporter [2]; dual-isotopes, 180 to 210 minutes after injection, pretreated with fluoxetine for 16 hours): no big changes | uptakes of [^99mTc]TRODAT-1 of striatum after pretreatment with fluoxetine versus not pretreated (conclusion) (dopamine transporter [2]; pretreated with fluoxetine for 16 hours): no big difference

COC(=O)C(c1ccccc1)C1CCCCN1 (stereo not drawn) [methylphenidate HCl]
uptakes of [^99mTc]TRODAT-1 of striatum after pretreatment with methylphenidate HCl (conclusion) (dopamine transporter [2]; dual-isotopes): obviously reduced | [^99mTc]TRODAT-1 SURs after pretreatment with methylphenidate HCl (dopamine transporter [2]; dual-isotopes, 180 to 210 minutes after injection, methylphenidate HCl 1 mg/kg 10 minutes before): greatly lowered | uptakes of [^123I]ADAM after pretreatment with methylphenidate HCl versus not pretreated (serotonin transporter; midbrain, striatum, thalamus and frontal cortex, dual-isotopes, 180 to 210 minutes after injection, methylphenidate HCl 1 mg/kg): no big difference | specific uptakes of [^123I]ADAM after pretreatment with methylphenidate HCl versus not pretreated (conclusion) (serotonin transporter; midbrain, thalamus, striatum and frontal cortex): no big changes | [^123I]ADAM SURs after pretreatment with methylphenidate HCl (serotonin transporter; striatum, thalamus and midbrain, dual-isotopes, methylphenidate HCl 1 mg/kg): no big changes
